Measured values reported in the supplement of paper PMC10307832.

Columns and labels:
Assay in all cases: relative viability (nuclei count vs DMSO), 5 days (fraction); higher = more cells survive
[1] = compound: C/C(=N\NC(=S)N1CCC1)/C2=CC=CC=N2 + COc1cccc2cc(-c3nc([C@H]4CC[C@H](C(=O)O)CC4)n4ncnc(N)c34)[nH]c12 [OSI-027] (partner 0.5 µM)
In short: (§1)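 Five library-drug doses in √10 steps were combined with a fixed anchor-drug dose, or a single drug was given alone, by pin tool to lung cancer cell lines in 1536-well plates the day after seeding. Nuclei were stained and counted after 5 days. Relative viability is the nuclei count in treated wells over that in vehicle wells, taken as the median of duplicate plates.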

[2] = compound: C/C(=N\NC(=S)N1CCC1)/C2=CC=CC=N2 + C[C@@H](Oc1cc(-c2cnn(C3CCNCC3)c2)cnc1N)c1c(Cl)ccc(F)c1Cl [Crizotinib] (partner 1 µM)
In short: as §1

[3] = compound: C/C(=N\NC(=S)N1CCC1)/C2=CC=CC=N2 + N=C(N)NC(=N)NCCc1ccccc1 [Phenformin] (partner 250 µM)
In short: as §1

[4] = compound: C/C(=N\NC(=S)N1CCC1)/C2=CC=CC=N2 + CC(=O)Nc1cccc(-n2c(=O)n(C3CC3)c(=O)c3c(Nc4ccc(I)cc4F)n(C)c(=O)c(C)c32)c1 [Trametinib] (partner 0.02 µM)
In short: as §1

Cell Line	relative viability ([1]; first compound 0.05 µM)	relative viability ([1]; first compound 0.1581 µM)	relative viability ([1]; first compound 0.5 µM)	relative viability ([1]; first compound 1.581 µM)	relative viability ([1]; first compound 5 µM)	relative viability ([2]; first compound 0.05 µM)	relative viability ([2]; first compound 0.1581 µM)	relative viability ([2]; first compound 0.5 µM)	relative viability ([2]; first compound 1.581 µM)	relative viability ([2]; first compound 5 µM)	relative viability ([3]; first compound 0.05 µM)	relative viability ([3]; first compound 0.1581 µM)	relative viability ([3]; first compound 0.5 µM)	relative viability ([3]; first compound 1.581 µM)	relative viability ([3]; first compound 5 µM)	relative viability ([4]; first compound 0.05 µM)	relative viability ([4]; first compound 0.1581 µM)	relative viability ([4]; first compound 0.5 µM)	relative viability ([4]; first compound 1.581 µM)	relative viability ([4]; first compound 5 µM)
201T	0.402	0.21	0.201	0.166	0.134	0.773	0.983	0.485	0.477	0.321	0.362	0.355	0.343	0.311	0.247	0.575	0.713	0.327	0.407	0.283
A-427	0.172	0.154	0.135	0.165	0.125	0.267	0.445	0.0997	0.0835	0.129	0.13	0.142	0.134	0.121	0.138	0.226	0.215	0.189	0.185	0.178
ABC-1	0.257	0.191	0.239	0.226	0.2	0.23	0.189	0.2	0.172	0.142	0.196	0.203	0.222	0.202	0.14	–	–	–	–	–
BEN	0.206	0.142	0.166	0.183	0.202	0.193	0.182	0.244	0.177	0.169	0.155	0.16	0.178	0.232	0.201	0.341	0.344	0.359	0.3	0.268
CAL-12T	0.133	0.126	0.145	0.105	0.147	0.106	0.0871	0.12	0.103	0.0896	0.171	0.15	0.136	0.112	0.101	0.0974	0.126	0.163	0.135	0.122
COR-L23	0.116	0.111	0.108	0.0709	0.0853	0.11	0.119	0.12	0.0692	0.0727	0.104	0.102	0.104	0.0877	0.0862	0.111	0.133	0.124	0.107	0.114
COR-L 105	0.251	0.329	0.338	0.255	0.248	0.231	0.252	0.224	0.205	0.256	0.198	0.299	0.29	0.196	0.214	0.376	0.462	0.377	0.343	0.339
Calu-6	–	–	–	–	–	0.117	0.136	0.128	0.109	0.102	–	–	–	–	–	–	–	–	–	–
ChaGo-K-1	0.15	0.168	0.177	0.163	0.165	0.34	0.339	0.258	0.312	0.279	0.176	0.194	0.188	0.152	0.174	0.147	0.391	0.15	0.133	0.152
EKVX	0.12	0.122	0.11	0.111	0.146	0.142	0.159	0.121	0.137	0.159	0.14	0.132	0.167	0.161	0.23	0.104	0.124	0.114	0.151	0.136
EMC-BAC-2	0.199	0.22	0.233	0.189	0.209	0.365	0.336	0.16	0.153	0.142	0.156	0.233	0.214	0.211	0.212	0.293	0.282	0.246	0.2	0.231
EPLC-272H	0.159	0.13	0.138	0.103	0.112	0.0969	0.187	0.121	0.126	0.171	0.112	0.13	0.084	0.0614	0.122	0.121	0.114	0.114	0.0558	0.0892
H3255	0.364	0.293	0.25	0.254	0.29	0.289	0.309	0.288	0.222	0.189	0.318	0.333	0.317	0.301	0.346	0.29	0.304	0.258	0.295	0.325
HARA	0.0966	0.0611	0.0659	0.0562	0.0621	0.361	0.227	0.152	0.115	0.0965	0.0726	0.0701	0.0872	0.047	0.0649	0.322	0.11	0.193	0.109	0.102
HCC-15	0.079	0.0907	0.0888	0.0899	0.0898	0.21	0.412	0.0685	0.073	0.0642	0.0651	0.134	0.144	0.0712	0.0989	0.151	0.23	0.117	0.0989	0.0939
HCC-44	0.183	0.221	0.261	0.195	0.297	0.783	0.208	0.186	0.209	0.229	0.0955	0.14	0.0915	0.153	0.188	0.869	0.987	0.409	0.491	0.397
HCC-78	0.299	0.354	0.332	0.237	0.23	0.338	0.251	0.237	0.142	0.167	0.279	0.367	0.314	0.247	0.213	0.5	0.377	0.359	0.275	0.23
